Read-outs that look alike come from different tables or passages of the source.
How the values were obtained:
Plasmin = molecular target: T1, Plasmin (Homo sapiens, UniProt P00747); experiment: In vitro inhibition of serine proteases: plasmin; format: biochemical
T1 construct: uPA mediates the proteolytic cleavage of plasminogen to give plasmin
Experimental: (§1) Ki values were determined according to Dixon by linear regression using a computer program.

[1] = tested on: human breast carcinoma cells (MDA-BA-231); experiment: Human breast cancer cells in nude mice; format: in vivo, Balb/c nude mice; settings: 1.2 mg/kg i.p. twice a week, vs control (FIG. 6)
Experimental: In order to test the in vivo efficacy of the inhibitor for inhibiting tumor growth of human breast carcinoma cells (MDA-BA-231), 6×10^6 cells were injected subcutaneously into the right flank of Balb/c nude mice (4-6 weeks old). The tumor cells were preincubated with the synthetic uPA inhibitor prior to inoculation. After 24 h, the mice were treated twice a week intraperitoneally with a dose of 1.2 mg/kg body weight as described under A). The tumor size was determined weekly by measuring the two largest diameters.

Tryptase = Tryptase (Homo sapiens, UniProt Q15661); experiment: In vitro inhibition of serine proteases: tryptase; format: biochemical
Sequence of Tryptase (Q15661 31-275): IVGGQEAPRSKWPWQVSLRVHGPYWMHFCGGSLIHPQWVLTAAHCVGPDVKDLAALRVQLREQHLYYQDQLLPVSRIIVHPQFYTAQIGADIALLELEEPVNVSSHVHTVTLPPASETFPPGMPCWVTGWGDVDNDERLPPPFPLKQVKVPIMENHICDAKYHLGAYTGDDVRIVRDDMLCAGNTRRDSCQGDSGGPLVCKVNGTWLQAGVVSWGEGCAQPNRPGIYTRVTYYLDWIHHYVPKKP
Experimental: (§2) To determine the inhibitory activity, 200 μl of Tris buffer (0.05 mol/l, containing the inhibitor, 0.154 mol/l NaCl, 5% ethanol pH 8.0), 25 μl of substrate (Pefachrome UK or Bz-βAla-Gly-Arg-pNA in H2O; Pentapharm Ltd., Basle, Switzerland) and 50 μl of sc-urokinase (Ribosepharm GmbH, Haan, Germany) were incubated at 25° C. After 3 min the reaction was stopped by adding 25 μl of acetic acid (50%), and the absorption at 405 nm was determined by means of a Microplate Reader (MR 5000, Dynatech, Denkendorf, Germany). Ki values were determined according to Dixon by linear regression using a computer program. The Ki values are the mean values of at least three determinations with a standard deviation of less than 25%.
(§3) The inhibition activities of the enzymes used were determined according to the principle described in Example 3.

Urokinase (sc-urokinase) = molecular target: T2, Urokinase (sc-urokinase) (Homo sapiens, UniProt P00749); experiment: In vitro inhibition of urokinase (chromogenic substrate, Dixon Ki); format: biochemical
T2 construct: purchased Ribosepharm GmbH, Haan, Germany
Experimental: as §2

Factor XIIa = molecular target: T3, Factor XIIa (Homo sapiens, UniProt P00748); experiment: In vitro inhibition of serine proteases: factor XIIa; format: biochemical
T3 sequence (P00748 373-615 limits assumed): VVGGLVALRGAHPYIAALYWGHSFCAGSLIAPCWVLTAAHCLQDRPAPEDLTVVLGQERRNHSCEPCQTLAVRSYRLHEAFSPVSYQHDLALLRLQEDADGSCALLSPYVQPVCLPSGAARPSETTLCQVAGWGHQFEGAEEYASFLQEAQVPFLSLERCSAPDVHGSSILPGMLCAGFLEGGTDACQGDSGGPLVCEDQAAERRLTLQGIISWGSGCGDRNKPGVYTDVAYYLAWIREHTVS
Experimental: as §2, §3

[2] = molecular target: Sc-tPA (single chain tPA) (Homo sapiens, UniProt P00750); experiment: In vitro inhibition of serine proteases: Sc-tPA; format: biochemical
Sequence of Sc-tPA (single chain tPA) (P00750 36-562): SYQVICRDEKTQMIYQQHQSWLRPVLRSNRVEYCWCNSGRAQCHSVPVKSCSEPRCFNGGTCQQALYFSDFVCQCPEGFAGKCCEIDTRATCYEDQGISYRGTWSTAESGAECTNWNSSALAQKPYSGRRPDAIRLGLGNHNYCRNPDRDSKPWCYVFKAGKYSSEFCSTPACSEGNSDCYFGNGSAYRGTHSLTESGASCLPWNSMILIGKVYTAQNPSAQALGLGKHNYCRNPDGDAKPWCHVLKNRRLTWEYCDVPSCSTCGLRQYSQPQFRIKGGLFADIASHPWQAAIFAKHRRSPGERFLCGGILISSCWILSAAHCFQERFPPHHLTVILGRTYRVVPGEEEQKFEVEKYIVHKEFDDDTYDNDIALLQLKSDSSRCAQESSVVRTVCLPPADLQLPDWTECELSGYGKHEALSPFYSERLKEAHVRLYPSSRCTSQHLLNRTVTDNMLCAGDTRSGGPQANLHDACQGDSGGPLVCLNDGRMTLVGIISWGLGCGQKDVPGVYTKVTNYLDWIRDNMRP
Experimental: as §2, §3

Trypsin = molecular target: T4, Trypsin (Bos taurus, UniProt P00760); experiment: In vitro inhibition of serine proteases: trypsin; format: biochemical
T4 construct: gene PRSS1
T4 sequence (P00760 24-246): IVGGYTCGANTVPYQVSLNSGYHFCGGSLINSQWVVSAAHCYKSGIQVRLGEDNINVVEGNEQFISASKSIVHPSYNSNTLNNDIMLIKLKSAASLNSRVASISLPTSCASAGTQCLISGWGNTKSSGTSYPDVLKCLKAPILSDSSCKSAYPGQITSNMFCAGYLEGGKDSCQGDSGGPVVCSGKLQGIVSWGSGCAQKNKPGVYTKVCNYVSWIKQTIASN
Experimental: as §1

T1 sequence (P00747 581-810 limits assumed, species assumed): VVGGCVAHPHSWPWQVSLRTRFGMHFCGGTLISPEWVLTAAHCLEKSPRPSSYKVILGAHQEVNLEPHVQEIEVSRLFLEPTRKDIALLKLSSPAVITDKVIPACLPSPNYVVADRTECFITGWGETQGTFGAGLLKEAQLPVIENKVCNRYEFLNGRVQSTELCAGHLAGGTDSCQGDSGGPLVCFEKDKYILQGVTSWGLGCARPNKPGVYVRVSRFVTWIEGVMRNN
T1 sequence (P00747 97-580 partner limits assumed, species assumed): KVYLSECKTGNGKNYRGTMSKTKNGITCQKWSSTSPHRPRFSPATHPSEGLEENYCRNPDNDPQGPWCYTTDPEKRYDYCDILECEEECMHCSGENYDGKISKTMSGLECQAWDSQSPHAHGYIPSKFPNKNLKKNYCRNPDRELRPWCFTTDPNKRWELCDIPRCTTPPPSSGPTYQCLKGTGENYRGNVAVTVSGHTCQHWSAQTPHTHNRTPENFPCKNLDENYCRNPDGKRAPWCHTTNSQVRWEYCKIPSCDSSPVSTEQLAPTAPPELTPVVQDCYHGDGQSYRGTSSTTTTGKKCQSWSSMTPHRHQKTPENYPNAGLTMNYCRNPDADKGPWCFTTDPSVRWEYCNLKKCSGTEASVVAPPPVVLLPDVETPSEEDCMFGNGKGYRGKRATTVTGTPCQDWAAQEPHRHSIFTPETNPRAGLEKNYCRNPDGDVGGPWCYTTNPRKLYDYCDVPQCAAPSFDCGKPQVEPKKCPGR

## CCOC(=O)N1CCN(C(=O)[C@H](Cc2cccc(C(=N)N)c2)NS(=O)(=O)c2c(C(C)C)cc(C(C)C)cc2C(C)C)CC1.Cl [uPA inhibitor, Nα-2,4,6-Triisopropylphenylsulfonyl-(L)-3-amidinophenylalanine 4-ethoxycarbonylpiperazide hydrochloride]
Plasmin
  Ki: 390 nM
[1]
  tumor volume increase: significantly more slowly
Tryptase
  Ki: 6300 nM
Urokinase (sc-urokinase); in vitro inhibition of urokinase, 25° C, pH 8.0, 5% ethanol, read-out: Ki
  Ki: 410 nM
Urokinase (sc-urokinase); read-out: Ki Urokinase
  Ki: 410 nM
Factor XIIa
  Ki: 13000 nM
[2]
  Ki: 4900 nM
Trypsin
  Ki: 37 nM
